Measurements as given in patent US20180289655A1, “Methods and Compositions for the Intravenous Administration of Fumarates for the Treatment of Neurological Diseases” (Biogen MA Inc., priority 2015, published 2018).
Where a name gives a salt, the structure may show the parent alone.

Tests used:
[1] = Solubility of DMF in 20% Captisol; format: physicochemical; settings: aqueous with cosolvent or surfactant or cyclodextrin, thermodynamic from solid, room temperature (heated at 50° C., cooled, filtered)
Experimental: The preparations were heated at 50° C. for 5-10 min, followed by cooled to room temperature.

[2] = Solution stability of DMF in aqueous solution (HPLC); format: physicochemical; parameters: DMF assay: unit not given here
Experimental: Solution stability studies were conducted using 0.2 mg/ml concentration solutions, which were achieved by mixing equal volumes of the stock solution and individual study media. […] Samples stored at 37° C. or ambient temperature were pulled at predetermined time points, and analyzed by HPLC.

[3] = 24-hour equilibrium solubility of DMF in water; format: physicochemical; settings: thermodynamic from solid
Experimental: Samples were then filtrated at the measuring temperatures through a 0.2 μm filter unit, and the concentrations of the filtrate were determined using HPLC. The solids in equilibrium were confirmed, by FT-Raman technique, to be the same form as the starting material.

SOD1-G93A mice = experiment: SOD1-G93A mouse model of ALS, oral DMF; format: in vivo; settings: DMF p.o. 100 mg/kg daily
Experimental: Motor performance was assessed by rotarod at day 85, 100, and 115. Health was monitored by clinical observation and body weight. […] Body weight was modestly impacted by DMF.
Thirty-two female SOD1-G93A mice were purchased from Jackson Laboratories (Line 2726). All mice were transgene positive. Sixteen mice were used per dosing group. Dosing began at day 50-55. All procedures were conducted in accordance with the NIH Guide for the Care and Use of Laboratory Animals and were approved by the Biogen Idec Institutional Animal Care and Use Committee (IACUC Protocol No. 0408-2011).
Mice were dosed once daily either with vehicle or DMF. Dosing volume was 10 ml/kg, introduced by oral gavage.
Disease onset and progression in the SOD1-G93A was monitored by three approaches. All approaches were done in a blinded fashion. Body weight was recorded on a daily basis. Mice were also inspected on a daily basis for disease onset, as defined by leg tremor or decreased hind limb flexion upon tail lift. Mice were also assessed on an accelerating rotarod test at weeks 12, 14, and 16. For this test, mice were first acclimated to a rod rotating at 2 rpm for 300 seconds once a day for two days. For the actual test, mice are placed on rod accelerating from 2 to 40 rpm over 90 seconds. Upon reaching full speed, the test continues for an additional 30 seconds. Mice were tested three times per day and the longest time recorded. Mice that were unable to remain on the rod for 20 seconds were excluded from further testing.
Mice were determined to have reached endpoint criteria for humane euthanasia when then when they failure to right from either side within 15 seconds.
For rotarod and body weight, values were compared by two-way ANOVA. Body weight was further evaluated by break point analysis. Break point analysis identifies the inflection point of a curve, by completing a series of linear regression fits. The intersection of the curve fits for the ascending and descending slopes with the minimal residual error is defined as the break point. For each mouse, the breakpoint was determined. The two groups were then compared by Student's T-test. Differences in onset and survival were tested for using the Mantel-Cox log rank test. A further test with the Cox proportional hazards test incorporating littermate status was completed.

[4] = SGF (without pepsin), 0.2 mg/ml, initial
[5] = SGF (without pepsin), 37° C., 24 hr
[6] = SGF (without pepsin), ambient temperature, 24 hr
[7] = SGF (without pepsin), ambient temperature, 48 hr
[8] = SGF (without pepsin), ambient temperature, 72 hr
[9] = SIF (without pancreatin), 0.2 mg/ml, initial
[10] = SIF (without pancreatin), 37° C., 24 hr
[11] = SIF (without pancreatin), ambient temperature, 24 hr
[12] = SIF (without pancreatin), ambient temperature, 48 hr
[13] = SIF (without pancreatin), ambient temperature, 72 hr
[14] = Water, ambient temperature, 24 hr
[15] = Water, ambient temperature, 48 hr
[16] = Water, ambient temperature, 72 hr
[17] = pH 2 Citrate Buffer, 0.2 mg/ml, initial
[18] = pH 2 Citrate Buffer, 37° C., 24 hr
[19] = pH 2 Citrate Buffer, ambient temperature, 24 hr
[20] = pH 2 Citrate Buffer, ambient temperature, 48 hr
[21] = pH 2 Citrate Buffer, ambient temperature, 72 hr
[22] = pH 4 Citrate Buffer, 0.2 mg/ml, initial
[23] = pH 4 Citrate Buffer, 37° C., 24 hr
[24] = pH 4 Citrate Buffer, ambient temperature, 24 hr
[25] = pH 4 Citrate Buffer, ambient temperature, 48 hr
[26] = pH 4 Citrate Buffer, ambient temperature, 72 hr
[27] = pH 6 Citrate Buffer, 0.2 mg/ml, initial
[28] = pH 6 Citrate Buffer, 37° C., 24 hr
[29] = pH 6 Citrate Buffer, ambient temperature, 24 hr
[30] = pH 6 Citrate Buffer, ambient temperature, 48 hr
[31] = pH 6 Citrate Buffer, ambient temperature, 72 hr
[32] = pH 8 Borate Buffer, 0.2 mg/ml, initial
[33] = pH 8 Borate Buffer, 37° C., 24 hr
[34] = pH 8 Borate Buffer, ambient temperature, 24 hr
[35] = pH 10 Borate Buffer, 0.2 mg/ml, initial
[36] = pH 10 Borate Buffer, 37° C., 24 hr
[37] = pH 10 Borate Buffer, ambient temperature, 24 hr

SMILES: COC(=O)/C=C/C(=O)OC [DMF, dimethyl fumarate]
- solubility [1]: 4110 µg/mL
- Stability of DMF in solution at higher pH ([2]; 37° C., aqueous media): decreased rapidly as the solution pH went above 7
- pH of maximum stability of DMF in solution ([2]; 37° C., aqueous media): ~4
- DMF area % [2, 4]: 99.3 area %
- DMF assay [2, 4]: 102.9
- DMF area % [2, 5]: 92.2 area %
- DMF assay [2, 5]: 91.1
- DMF area % [2, 6]: 96.6 area %
- DMF assay [2, 6]: (95.2)
- DMF area % [2, 7]: 95.6 area %
- DMF assay [2, 7]: (92.5)
- DMF area % [2, 8]: 95.4 area %
- DMF assay [2, 8]: (91.6)
- DMF area % [2, 9]: 99.3 area %
- DMF assay [2, 9]: 100.9
- DMF area % [2, 10]: 29.5 area %
- DMF assay [2, 10]: 27.8
- DMF area % [2, 11]: 68.7 area %
- DMF assay [2, 11]: (68.3)
- DMF area % [2, 12]: 64.5 area %
- DMF assay [2, 12]: (60.3)
- DMF area % [2, 13]: 62.2 area %
- DMF assay [2, 13]: (59.0)
- DMF area % ([2]; Water, 0.2 mg/ml, initial): 96.6 area %
- DMF assay ([2]; Water, 0.2 mg/ml, initial): 98.9
- DMF area % ([2]; Water, 37° C., 24 hr): 77.4 area %
- DMF assay ([2]; Water, 37° C., 24 hr): 73.9
- DMF area % [2, 14]: 84.8 area %
- DMF assay [2, 14]: (81.6)
- DMF area % [2, 15]: 85.1 area %
- DMF assay [2, 15]: (80.2)
- DMF area % [2, 16]: 83.5 area %
- DMF assay [2, 16]: (79.3)
- DMF area % [2, 17]: 99.5 area %
- DMF assay [2, 17]: 101.0
- DMF area % [2, 18]: 97.9 area %
- DMF assay [2, 18]: 96.0
- DMF area % [2, 19]: 99.1 area %
- DMF assay [2, 19]: (94.7)
- DMF area % [2, 20]: 98.9 area %
- DMF assay [2, 20]: (93.2)
- DMF area % [2, 21]: 98.7 area %
- DMF assay [2, 21]: (92.0)
- DMF area % [2, 22]: 99.8 area %
- DMF assay [2, 22]: 101.9
- DMF area % [2, 23]: 99.6 area %
- DMF assay [2, 23]: 100.4
- DMF area % [2, 24]: 99.6 area %
- DMF assay [2, 24]: (97.2)
- DMF area % [2, 25]: 99.2 area %
- DMF assay [2, 25]: (98.5)
- DMF area % [2, 26]: 99.6 area %
- DMF assay [2, 26]: (93.9)
- DMF area % [2, 27]: 100 area %
- DMF assay [2, 27]: 101.4
- DMF area % [2, 28]: 92.6 area %
- DMF assay [2, 28]: 91.8
- DMF area % [2, 29]: 97.5 area %
- DMF assay [2, 29]: (90.7)
- DMF area % [2, 30]: 95.3 area %
- DMF assay [2, 30]: (92.5)
- DMF area % [2, 31]: 96.1 area %
- DMF assay [2, 31]: (88.4)
- DMF area % [2, 32]: 98.6 area %
- DMF assay [2, 32]: 101.0
- DMF area % [2, 33]: 17.2 area %
- DMF assay [2, 33]: 15.9
- DMF area % [2, 34]: 46.5 area %
- DMF assay [2, 34]: (44.8)
- DMF area % [2, 35]: 37.1 area %
- DMF assay [2, 35]: 36.1
- DMF area % [2, 36]: 0/0 area %
- DMF assay [2, 36]: 0/0
- DMF area % [2, 37]: 0/0 area %
- DMF assay [2, 37]: 0/0
- Degradation of DMF before initial HPLC determination ([2]; pH 10 borate buffer solution): more than half of DMF degraded before an initial concentration was able to be determined
- solubility at 24 h ([3]; 20 ° C., 24 hours): 2700 µg/mL
- solubility at 24 h ([3]; 35 ° C., 24 hours): 3500 µg/mL
- solubility at 24 h ([3]; 50 ° C., 24 hours): 5500 µg/mL
- solubility at 24 h ([3]; ambient temperature): 2700 µg/mL
- Disease onset as assessed by limb splay (SOD1-G93A mice): did not significantly change onset
- Survival (SOD1-G93A mice): did not prolong survival
- Transition from weight gain to weight loss (breakpoint analysis) (SOD1-G93A mice; p<0.05): significantly delayed
- Rotarod performance (SOD1-G93A mice; weeks 12, 14, 16): did not alter rotarod performance
